Experiments:
[1] = system: MiaPaca-2 (expressing KRAS G12C mutant); experiment: Proliferation Assay (Cell Viability Assay); format: cell-based; conditions: Homo sapiens, MIA PaCa-2; read-out: Proliferation in MiaPaca-2: IC50
Summary of the method: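 MiaPaca-2 cells (KRAS G12C) were grown in DMEM-high glucose with 10% FBS, seeded at 2000–5000 cells/well and cultured overnight. Compounds were added at 10 μM final, or as serial dilutions for IC50, in 0.3% DMSO/10% FBS for 2–4 days at 37 °C, 5% CO2. Viability was measured with CellTiter 96 Aqueous One and % inhibition calculated.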

KRas G12D mutant = experiment: Ras GTP Binding Domain Inhibition Assay (Ras Superfamily Assay); conditions: for KRas G12D mutant + SOS: % inh.: with SOS; for KRas G12D mutant: % inh.: without SOS
Summary of the method: (§1)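 Ni-plate capture of His-tagged protein (10-30 μg/mL, o/n 4° C); cpd 20 μM or dilution series, 1% DMSO, 3 h RT ± Sos 556-1049 last h; 100 nM Cy-labelled GTP 45 min RT; 3× wash; fluorescence read.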

KRas wild type = experiment: as above; conditions: for KRas wild type + SOS: % inh.: with SOS; for KRas wild type: % inh.: without SOS
Summary of the method: as §1

Rac-1 = target: T1, Rac-1 (Homo sapiens, UniProt P63000); experiment: as above; conditions: read-out: Rac-1: % inh.
T1 construct: made in house
Summary of the method: as §1

SMILES	IC50 [1] [µM]	KRas G12D mutant + SOS: % inh. (KRas G12D mutant; 20 μM compound)	KRas G12D mutant: % inh. (KRas G12D mutant; 20 μM compound)	KRas wild type + SOS: % inh. (KRas wild type; 20 μM compound)	KRas wild type: % inh. (KRas wild type; 20 μM compound)	inhibition at 20 µM (Rac-1) [%]	KRas G12D mutant + SOS: % inh. (KRas G12D mutant; at 20 μM)	KRas G12D mutant: % inh. (KRas G12D mutant; at 20 μM)	KRas wild type + SOS: % inh. (KRas wild type; at 20 μM)	KRas wild type: % inh. (KRas wild type; at 20 μM)
COc1ccnc(Nc2nc(-c3nccn3C)nn3cc(-c4ccn(C)n4)c(C(=O)N4CCCC4)c23)c1 [Compound 178, (4-((4-Methoxypyridin-2-yl)amino)-2-(1-methyl-1H-imidazol-2-yl)-6-(1-methyl-1H-pyrazol-3-yl)pyrrolo[2,1-f][1,2,4]triazin-5-yl)(pyrrolidin-1-yl)methanone]	> 1	D (D = 76-100% inhibition)	D (D = 76-100% inhibition)	D (D = 76-100% inhibition)	D (D = 76-100% inhibition)	76 to 100				
COc1cccc(Nc2nc(-c3ccccn3)nn3cc(-c4ccn(C(C)C)n4)c(C)c23)n1 [Compound 14, 6-(1-Isopropyl-1H-pyrazol-3-yl)-N-(6-methoxypyridin-2-yl)-5-methyl-2-(pyridin-2-yl)pyrrolo[2,1-f][1,2,4]triazin-4-amine]	> 1	0 (0 = 0% inhibition)	A (A = 1-25% inhibition)	A (A = 1-25% inhibition)	0 (0 = 0% inhibition)	0				
COC1CCCN(c2nc(-c3ccccn3)nn3cc(-c4ccn(C(C)C)n4)c(C)c23)C1 (racemic) [Compound 12, rac 6-(1-Isopropyl-1H-pyrazol-3-yl)-4-(3-methoxypiperidin-1-yl)-5-methyl-2-(pyridin-2-yl)pyrrolo[2,1-f][1,2,4]triazine]	> 1	0 (0 = 0% inhibition)	A (A = 1-25% inhibition)	0 (0 = 0% inhibition)	0 (0 = 0% inhibition)	0				
Cc1c(-c2ccn(C)n2)cn2nc(-c3nccn3C)nc(Nc3cc(OCCNC(=O)CCCC[C@H]4SC[C@H]5NC(=O)N[C@H]54)ccn3)c12 [Compound 186, N-(2-((2-((5-Methyl-2-(1-methyl-1H-imidazol-2-yl)-6-(1-methyl-1H-pyrazol-3-yl)pyrrolo[2,1-f][1,2,4]triazin-4-yl)amino)pyridin-4-yl)oxy)ethyl)-5-((3aR,4R,6aS)-2-oxohexahydro-1H-thieno[3,4-d]imidazol-4-yl)pentanamide]	> 1	D (D = 76-100% inhibition)	D (D = 76-100% inhibition)	D (D = 76-100% inhibition)	D (D = 76-100% inhibition)	76 to 100				
COc1ccnc(Nc2nc(-c3nccn3C)nn3cc(-c4ccn(C)n4)c(C(=O)NC4CC4)c23)c1 [Compound 175, N-Cyclopropyl-4-((4-methoxypyridin-2-yl)amino)-2-(1-methyl-1H-imidazol-2-yl)-6-(1-methyl-1H-pyrazol-3-yl)pyrrolo[2,1-f][1,2,4]triazine-5-carboxamide]	0.15 to 0.5	D (D = 76-100% inhibition)	C (C = 50-75% inhibition)	D (D = 76-100% inhibition)	D (D = 76-100% inhibition)	26 to 49				
CO[C@H]1C[C@@H](Nc2nc(-c3nccn3C)nn3cc(-c4cccnc4)c(-c4ccccc4)c23)C1 [Compound 191, N-((1s,3s)-3-Methoxycyclobutyl)-2-(1-methyl-1H-imidazol-2-yl)-5-phenyl-6-(pyridin-3-yl)pyrrolo[2,1-f][1,2,4]triazin-4-amine]	> 1					1 to 25	B (B = 26-49% inhibition)	B (B = 26-49% inhibition)	B (B = 26-49% inhibition)	A (A = 1-25% inhibition)
Cn1ccnc1-c1nc(O)c2c(-c3ccccc3)c(-c3cccnc3)cn2n1 [Compound 189, 2-(1-Methyl-1H-imidazol-2-yl)-5-phenyl-6-(pyridin-3-yl)pyrrolo[2,1-f][1,2,4]triazin-4-ol]	> 1					1 to 25	A (A = 1-25% inhibition)	A (A = 1-25% inhibition)	0 (0 = 0% inhibition)	0 (0 = 0% inhibition)

Next, values leading:

IC50 [1] [µM]	KRas G12D mutant + SOS: % inh. (KRas G12D mutant; 20 μM compound)	KRas G12D mutant: % inh. (KRas G12D mutant; 20 μM compound)	KRas wild type + SOS: % inh. (KRas wild type; 20 μM compound)	KRas wild type: % inh. (KRas wild type; 20 μM compound)	inhibition at 20 µM (Rac-1) [%]	KRas G12D mutant + SOS: % inh. (KRas G12D mutant; at 20 μM)	KRas G12D mutant: % inh. (KRas G12D mutant; at 20 μM)	KRas wild type + SOS: % inh. (KRas wild type; at 20 μM)	KRas wild type: % inh. (KRas wild type; at 20 μM)	SMILES
< 0.15					76 to 100	D (D = 76-100% inhibition)	D (D = 76-100% inhibition)	D (D = 76-100% inhibition)	D (D = 76-100% inhibition)	Cc1c(-c2ccn(C)n2)cn2nc(-c3nccn3C)nc(Nc3ccc(N(C)C)cn3)c12 [Compound 227, N5,N5-Dimethyl-N2-(5-methyl-2-(1-methyl-1H-imidazol-2-yl)-6-(1-methyl-1H-pyrazol-3-yl)pyrrolo[2,1-f][1,2,4]triazin-4-yl)pyridine-2,5-diamine]
> 1					50 to 75	D (D = 76-100% inhibition)	C (C = 50-75% inhibition)	D (D = 76-100% inhibition)	C (C = 50-75% inhibition)	Cn1ccnc1-c1nc(NS(C)(=O)=O)c2c(-c3ccccc3)c(-c3ccccc3)cn2n1 [Compound 212, N-(2-(1-Methyl-1H-imidazol-2-yl)-5,6-diphenylpyrrolo[2,1-f][1,2,4]triazin-4-yl) methanesulfonamide]
< 0.15					76 to 100	D (D = 76-100% inhibition)	D (D = 76-100% inhibition)	D (D = 76-100% inhibition)	D (D = 76-100% inhibition)	COc1ccnc(Nc2nc(-c3nccn3C)nn3cc(-c4cccnc4)c(-c4ccccc4)c23)c1 [Compound 196, N-(4-Methoxypyridin-2-yl)-2-(1-methyl-1H-imidazol-2-yl)-5-phenyl-6-(pyridin-3-yl)pyrrolo[2,1-f][1,2,4]triazin-4-amine]
> 1					1 to 25	A (A = 1-25% inhibition)	A (A = 1-25% inhibition)	0 (0 = 0% inhibition)	A (A = 1-25% inhibition)	CO[C@H]1CC[C@H](Nc2nc(-c3nccn3C)nn3cc(-c4cccnc4)c(-c4ccccc4)c23)C1 (racemic) [Compound 194, rac N-((1S,3S)-3-Methoxycyclopentyl)-2-(1-methyl-1H-imidazol-2-yl)-5-phenyl-6-(pyridin-3-yl)pyrrolo[2,1-f][1,2,4]triazin-4-amine]
> 1					1 to 25	A (A = 1-25% inhibition)	A (A = 1-25% inhibition)	A (A = 1-25% inhibition)	A (A = 1-25% inhibition)	CO[C@H]1C[C@H](Nc2nc(-c3nccn3C)nn3cc(-c4cnccc4C)c(-c4ccccc4)c23)C1 [Compound 218, N-((1r,3r)-3-Methoxycyclobutyl)-2-(1-methyl-1H-imidazol-2-yl)-6-(4-methylpyridin-3-yl)-5-phenylpyrrolo[2,1-f][1,2,4]triazin-4-amine]
< 0.15					50 to 75	B (B = 26-49% inhibition)	C (C = 50-75% inhibition)	B (B = 26-49% inhibition)	C (C = 50-75% inhibition)	COc1ccnc(Nc2nc(-c3nccn3C)nn3cc(-c4c(F)cccc4OC)c(-c4ccccc4)c23)c1 [Compound 217, 6-(2-Fluoro-6-methoxyphenyl)-N-(4-methoxypyridin-2-yl)-2-(1-methyl-1H-imidazol-2-yl)-5-phenylpyrrolo[2,1-f][1,2,4]triazin-4-amine]
< 0.15					76 to 100	D (D = 76-100% inhibition)	D (D = 76-100% inhibition)	D (D = 76-100% inhibition)	D (D = 76-100% inhibition)	Cc1cnc2c(c1)CCN2c1nc(-c2nccn2C)nn2cc(-c3ccn(C)n3)c(C)c12 [Compound 239, 5-Methyl-2-(1-methyl-1H-imidazol-2-yl)-6-(1-methyl-1H-pyrazol-3-yl)-4-(5-methyl-2,3-dihydro-1H-pyrrolo[2,3-b]pyridin-1-yl)pyrrolo[2,1-f][1,2,4]triazine]
0.15 to 0.5					76 to 100	D (D = 76-100% inhibition)	D (D = 76-100% inhibition)	D (D = 76-100% inhibition)	C (C = 50-75% inhibition)	CCOc1ccc(Nc2nc(-c3nccn3C)nn3cc(-c4ccn(C)n4)c(C)c23)nc1 [Compound 229, N-(5-Ethoxypyridin-2-yl)-5-methyl-2-(1-methyl-1H-imidazol-2-yl)-6-(1-methyl-1H-pyrazol-3-yl)pyrrolo[2,1-f][1,2,4]triazin-4-amine]
